Test results published in patent publication US20240252510A1, “COMPOSITION CONTAINING HOMOHARRINGTONINE AS ACTIVE INGREDIENT FOR PREVENTING OR TREATING MUSCLE DISEASES” (RESEARCH COOPERATION FOUNDATION OF YEUNGNAM UNIVERSITY, priority 2021, published 2024).
Entries after “also recorded” stand apart in the source; their conditions may differ.

Assays:
[1] = tested on: animal model with lower limb fixation-induced muscular atrophy; assay: Animal model with lower limb fixation-induced muscular atrophy: body weight, dietary intake, muscle weights; assay type: in vivo, C57BL/6 male mice; conditions: lower limb fixation mice; 0.545 μg/g i.p. three times a week for 4 weeks; vs phosphate-buffered saline group
Protocol: 8-week-old C57BL/6 male mice were adapted to the breeding environment for 1 week and then treated with homoharringtonine for 1 week, and the left lower limb was fixed using a stapler and maintained for 3 weeks. The animal model with lower limb fixation-induced muscular atrophy is an animal model for inducing muscular atrophy by reducing a load of body weight, and induction was conducted using a skin stapler (Manipler AZ, Utsunomiya, Tochigi, Japan) according to a method of Caron et al. (A novel hindlimb immobilization procedure for studying skeletal muscular atrophy and recovery in mouse. J Appl Physiol. 2009 June; 106(6):2049-59.). The unfixed right side was used as a control group.
For a total of 4 weeks from 1 week before fixation to 3 weeks of fixation, phosphate-buffered saline was administered to the control group and homoharringtonine (0.545 μg/g body weight) was administered to the experimental group three times a week intraperitoneally.

[2] = tested on: old mice; assay: Old mouse model: body weight, dietary intake, gastrocnemius weight; assay type: in vivo, 18-month-old C57BL/6 mice
Protocol: An 18-month-old C57BL/6 was purchased, and maintained in the same breeding environment as above the high-fat diet-induced animal model, and fed with a normal chow diet during the experiment. After adapting the old mice to the breeding environment for 1 week, they were randomly divided into a control group and an experimental group, and phosphate-buffered saline was administered to the control group and homoharringtonine (0.545 μg/g body weight) was administered to the experimental group intraperitoneally three times a week for more than 4 months.

In the case of `COC(=O)C[C@](O)(CCCC(C)(C)O)C(=O)O[C@@H]1C(OC)=C[C@]23CCCN2CCc2cc4c(cc2[C@H]13)OCO4` [homoharringtonine], the body weight [1] is reported as “no statistically significant difference”, the body weight ([2]; 0.545 μg/g i.p. three times a week, vs phosphate-buffered saline group) is reported as “did not show a significant difference; also recorded: no statistically significant difference” and the “body weight after 6 months of administration” value ([2]; another experimental group, 6 months of injection, vs control group) is reported as “no significant difference”.
